Measured values: patent US20130210664A1, “Methods for the Identification of Methyltransferase Interacting Molecules and for the Purification of Methyltransferase Proteins” (Cellzome AG, priority 2010, published 2013)

Key:
Assay in all cases: Competition binding bead assay with immobilized compound 6 in cell lysate, iTRAQ LC-MS/MS quantitation
SMYD5 = molecular target: T1, SMYD5 (Homo sapiens, UniProt Q6GMV2); settings: SMYD5 (IPI00013789.5); 200 μM free compound 6; mixed Jurkat and Ramos cell lysates; versus DMSO solvent control
T1 construct: endogenous in cells; host or cells: Jurkat (ATCC TIB-152) and Ramos (ATCC CRL-1596) cells, mixed lysate
T1 sequence (Q6GMV2 1-418): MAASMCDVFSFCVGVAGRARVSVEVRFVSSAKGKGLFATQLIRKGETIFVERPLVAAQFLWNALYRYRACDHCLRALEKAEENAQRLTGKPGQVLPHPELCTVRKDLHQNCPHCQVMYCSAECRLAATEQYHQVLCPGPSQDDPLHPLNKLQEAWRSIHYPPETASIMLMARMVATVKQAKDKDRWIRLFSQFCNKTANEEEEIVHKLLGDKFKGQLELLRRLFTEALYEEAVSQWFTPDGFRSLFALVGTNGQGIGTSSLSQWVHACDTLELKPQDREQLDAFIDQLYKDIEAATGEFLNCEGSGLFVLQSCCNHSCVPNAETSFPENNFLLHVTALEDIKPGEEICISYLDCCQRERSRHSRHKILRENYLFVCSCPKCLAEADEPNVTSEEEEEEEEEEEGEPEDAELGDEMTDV
Procedure: (§1) To the first aliquot of cell lysate 200 μM of the free compound 6 was added and allowed to bind to proteins in the lysate. Then the affinity matrix with the immobilized compound (Example 1) was added to capture proteins that were not interacting with the previously added free compound. Beads were separated from the lysate and bead bound proteins were eluted in SDS sample buffer and subsequently separated by SDS-Polyacrylamide gel electrophoresis. Suitable gel bands were cut out and subjected to in-gel proteolytic digestion with trypsin. The second lysate aliquot was processed identically, however no free compound was added (DMSO solvent control). Peptides originating from samples 1 and 2 were labeled with iTRAQ reagents (iTRAQ 114 and iTRAQ 116) and the combined samples were analyzed with a nano-flow liquid chromatography system coupled online to a tandem mass spectrometer (LC-MS/MS) experiment followed by iTRAQ reporter ion quantification in the MS/MS spectra (Ross et al., 2004. Mol. Cell. Proteomics 3(12):1154-1169). Further experimental protocols can be found in WO2006/134056 and a previous publication (Bantscheff et al., 2007. Nature Biotechnology 25, 1035-1044).
(§2) The identified methyltransferases are shown in Table 5 including the percent competition values for the sample to which 200 μM free compound had been added. […]

SETD7 = molecular target: T2, SETD7 (Homo sapiens, UniProt Q8WTS6); settings: SETD7 (IPI00028366.2); 200 μM free compound 6; mixed Jurkat and Ramos cell lysates; versus DMSO solvent control
T2 construct: endogenous in cells; host or cells: Jurkat (ATCC TIB-152) and Ramos (ATCC CRL-1596) cells, mixed lysate
T2 sequence (Q8WTS6 1-366): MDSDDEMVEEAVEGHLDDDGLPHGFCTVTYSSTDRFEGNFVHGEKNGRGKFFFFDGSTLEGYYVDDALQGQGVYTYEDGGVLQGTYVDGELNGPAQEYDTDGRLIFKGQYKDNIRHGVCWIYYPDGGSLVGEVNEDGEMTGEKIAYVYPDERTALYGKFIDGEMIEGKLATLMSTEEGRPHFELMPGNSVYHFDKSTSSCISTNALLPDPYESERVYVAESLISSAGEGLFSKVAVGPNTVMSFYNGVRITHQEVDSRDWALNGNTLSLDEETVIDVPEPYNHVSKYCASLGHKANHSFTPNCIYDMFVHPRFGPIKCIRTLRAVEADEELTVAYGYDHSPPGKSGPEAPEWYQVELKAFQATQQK
Procedure: as §1, §2

DPH5 = test system: DPH5; parameters: species or system human; settings: 200 μM free compound 6, mixed Jurkat and Ramos cell lysates, versus DMSO solvent control
Procedure: as §1, §2

`NCCCNc1nc(N)c2ncn([C@@H]3O[C@H](CSCC[C@H](N)C(=O)O)[C@@H](O)[C@H]3O)c2n1` [Compound 6, (S)-2-amino-4-((((2S,3S,4R,5R)-5-(6-amino-2-((3-aminopropyl)amino)-9H-purin-9-yl)-3,4-dihydroxytetrahydrofuran-2-yl)methyl)thio)butanoic acid] was tested, and the “% Competition” value (SMYD5) was 95.9%, the “% Competition” value (SETD7) was 94.1% and the “% Competition” value (DPH5) was 50.0%.
